PMC5233616, “Structural and functional analyses of human DDX41 DEAD domain” (Protein & Cell, 2016)

How the values were obtained:
hDDX41 DEAD domain [1] = target: T1, hDDX41 DEAD domain (Homo sapiens, UniProt Q9UJV9); test: thermal shift assay; assay type: binding; details: unliganded Tm 41 °C
T1 construct: gene DDX41; isolated DEAD domain (domain 1; motifs Q to III); monomer; full length is 1-622

hDDX41 DEAD domain [2] = target: T1, hDDX41 DEAD domain; test: isothermal titration calorimetry; details: read-out: binding affinity

T1 sequence (Q9UJV9 155-407 limits assumed): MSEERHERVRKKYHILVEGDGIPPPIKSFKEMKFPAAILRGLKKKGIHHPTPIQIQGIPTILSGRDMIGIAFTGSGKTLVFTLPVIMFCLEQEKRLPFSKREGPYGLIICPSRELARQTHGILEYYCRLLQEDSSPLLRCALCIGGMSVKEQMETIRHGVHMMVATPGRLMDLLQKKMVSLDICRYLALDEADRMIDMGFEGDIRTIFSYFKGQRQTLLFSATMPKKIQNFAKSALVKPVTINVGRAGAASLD

Row | SMILES | Tm increase (hDDX41 DEAD domain [1]) [°C] | Kd (hDDX41 DEAD domain [2]) [µM]
1 | Nc1ncnc2c1ncn2[C@@H]1O[C@H](COP(=O)(O)O)[C@@H](O)[C@H]1O [AMP] | 3.9 | 61
2 | Nc1ncnc2c1ncn2[C@@H]1O[C@H](COP(=O)(O)OP(=O)(O)O)[C@@H](O)[C@H]1O [ADP] | 2.2 | 31
